Test results taken from PubChem BioAssay (NCI).
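Exposure lasted 48 hours, with cells grown in 96-well plates and compounds tested at five concentrations. GI50 is the concentration that inhibits growth by half. TGI marks complete inhibition of growth.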

These compounds were tested on NCI-H522 lung (assay: NCI-60 cell line screen, 48 h).
CN(C)CCNc1nc2ccccc2c2c(=O)c3cc(F)ccc3sc12 was tested, and the GI50 was 1.86 µM and the TGI was 3.79 µM. O=C(CBr)c1ccc2cc(Br)c3ccccc3c2c1 showed a TGI of 37.6 µM.

What follows are compounds tested on BT-549 breast (assay: NCI-60 cell line screen, 48 h).
Compound Cn1cc(-c2csc(-c3cn(C)c4ccc(F)cc34)n2)c2cnccc21 has a GI50 of 1.71 µM and a TGI of 3.1 µM. Compound COc1cc(OC)c2sc(-c3ccc(-n4cncc4-c4cc(OC)c(OC)c(OC)c4)cc3)nc2c1 has a GI50 of 5.23 µM and a TGI greater than 100 µM. In the case of CN(C)CCNc1nc2ccccc2c2c(=O)c3cc(F)ccc3sc12, the GI50 is reported as 3.52 µM and the TGI is reported as greater than 100 µM. O=C(CBr)c1ccc2cc(Br)c3ccccc3c2c1 showed a TGI of 34 µM. Work on COc1ccc(-c2cc(-c3ccc(Nc4ccnc5cc(Cl)ccc45)cc3)nc(N3CCOCC3)n2)cc1 yielded a GI50 of 2.73 µM and a TGI greater than 100 µM.

Each compound was assayed on SNB-75 CNS (assay: NCI-60 cell line screen, 48 h).
Work on Cn1cc(-c2csc(-c3cn(C)c4ccc(F)cc34)n2)c2cnccc21 yielded a GI50 of 1.4 µM and a TGI of 2.74 µM. For COc1cc(OC)c2sc(-c3ccc(-n4cncc4-c4cc(OC)c(OC)c(OC)c4)cc3)nc2c1, the GI50 was 6.47 µM and the TGI was greater than 100 µM. Work on Cc1cn2c(/C=N/N=C(N)N)c(-c3ccc(Cl)c([N+](=O)[O-])c3)nc2s1 yielded a TGI of 2.37 µM. For CN(C)CCNc1nc2ccccc2c2c(=O)c3cc(F)ccc3sc12, the GI50 was 1.45 µM and the TGI was 2.8 µM. In the case of O=C(CBr)c1ccc2cc(Br)c3ccccc3c2c1, the TGI is reported as 72.8 µM. Compound COc1ccc(-c2cc(-c3ccc(Nc4ccnc5cc(Cl)ccc45)cc3)nc(N3CCOCC3)n2)cc1 has a GI50 of 1.52 µM and a TGI of 5.32 µM.

What follows are compounds tested on OVCAR-8 ovarian (assay: NCI-60 cell line screen, 48 h).
Work on Cn1cc(-c2csc(-c3cn(C)c4ccc(F)cc34)n2)c2cnccc21 yielded a GI50 of 2.02 µM and a TGI of 3.93 µM. With COc1cc(OC)c2sc(-c3ccc(-n4cncc4-c4cc(OC)c(OC)c(OC)c4)cc3)nc2c1 the GI50 was greater than 100 µM and the TGI was greater than 100 µM. Cc1cn2c(/C=N/N=C(N)N)c(-c3ccc(Cl)c([N+](=O)[O-])c3)nc2s1 gave a TGI greater than 100 µM. O=C(CBr)c1ccc2cc(Br)c3ccccc3c2c1 gave a TGI of 55.8 µM. Work on COc1ccc(-c2cc(-c3ccc(Nc4ccnc5cc(Cl)ccc45)cc3)nc(N3CCOCC3)n2)cc1 yielded a GI50 of 4.43 µM and a TGI greater than 100 µM.

Each compound was assayed on SW-620 colon (assay: NCI-60 cell line screen, 48 h).
For Cn1cc(-c2csc(-c3cn(C)c4ccc(F)cc34)n2)c2cnccc21, the GI50 was 1.88 µM and the TGI was 3.59 µM. Work on COc1cc(OC)c2sc(-c3ccc(-n4cncc4-c4cc(OC)c(OC)c(OC)c4)cc3)nc2c1 yielded a GI50 of 5.96 µM and a TGI greater than 100 µM. Cc1cn2c(/C=N/N=C(N)N)c(-c3ccc(Cl)c([N+](=O)[O-])c3)nc2s1 was tested, and the TGI was greater than 100 µM. For CN(C)CCNc1nc2ccccc2c2c(=O)c3cc(F)ccc3sc12, the GI50 was 1.67 µM and the TGI was 3.23 µM. O=C(CBr)c1ccc2cc(Br)c3ccccc3c2c1 was tested, and the TGI was 74.4 µM.

The compounds below were run on MDA-MB-435 (assay: NCI-60 cell line screen, 48 h).
With Cn1cc(-c2csc(-c3cn(C)c4ccc(F)cc34)n2)c2cnccc21 the GI50 was 1.67 µM and the TGI was 3.1 µM. In the case of COc1cc(OC)c2sc(-c3ccc(-n4cncc4-c4cc(OC)c(OC)c(OC)c4)cc3)nc2c1, the GI50 is reported as 3.41 µM and the TGI is reported as greater than 100 µM. CN(C)CCNc1nc2ccccc2c2c(=O)c3cc(F)ccc3sc12 was tested, and the GI50 was 1.66 µM and the TGI was 3.06 µM. O=C(CBr)c1ccc2cc(Br)c3ccccc3c2c1 gave a TGI of 42.6 µM. For COc1ccc(-c2cc(-c3ccc(Nc4ccnc5cc(Cl)ccc45)cc3)nc(N3CCOCC3)n2)cc1, the GI50 was 2.92 µM and the TGI was greater than 100 µM.

These compounds were tested on LOX IMVI melanoma (assay: NCI-60 cell line screen, 48 h).
For COc1cc(OC)c2sc(-c3ccc(-n4cncc4-c4cc(OC)c(OC)c(OC)c4)cc3)nc2c1, the GI50 was 5.4 µM and the TGI was greater than 100 µM. With CN(C)CCNc1nc2ccccc2c2c(=O)c3cc(F)ccc3sc12 the GI50 was 1.63 µM and the TGI was 3.03 µM. O=C(CBr)c1ccc2cc(Br)c3ccccc3c2c1 showed a TGI greater than 100 µM.

The compounds below were run on OVCAR-4 ovarian (assay: NCI-60 cell line screen, 48 h).
For Cn1cc(-c2csc(-c3cn(C)c4ccc(F)cc34)n2)c2cnccc21, the GI50 was 1.7 µM and the TGI was 3.16 µM. For COc1cc(OC)c2sc(-c3ccc(-n4cncc4-c4cc(OC)c(OC)c(OC)c4)cc3)nc2c1, the GI50 was 3.25 µM and the TGI was greater than 100 µM. Compound O=C(CBr)c1ccc2cc(Br)c3ccccc3c2c1 has a TGI of 58.9 µM. With COc1ccc(-c2cc(-c3ccc(Nc4ccnc5cc(Cl)ccc45)cc3)nc(N3CCOCC3)n2)cc1 the GI50 was 1.83 µM and the TGI was 3.57 µM.

What follows are compounds tested on SNB-19 CNS (assay: NCI-60 cell line screen, 48 h).
Cn1cc(-c2csc(-c3cn(C)c4ccc(F)cc34)n2)c2cnccc21 showed a GI50 of 1.82 µM and a TGI of 3.3 µM. Work on COc1cc(OC)c2sc(-c3ccc(-n4cncc4-c4cc(OC)c(OC)c(OC)c4)cc3)nc2c1 yielded a GI50 greater than 100 µM and a TGI greater than 100 µM. O=C(CBr)c1ccc2cc(Br)c3ccccc3c2c1 showed a TGI of 64.6 µM. With COc1ccc(-c2cc(-c3ccc(Nc4ccnc5cc(Cl)ccc45)cc3)nc(N3CCOCC3)n2)cc1 the GI50 was 3.86 µM and the TGI was greater than 100 µM.

The compounds below were run on CCRF-CEM leukemia (assay: NCI-60 cell line screen, 48 h).
Work on Cn1cc(-c2csc(-c3cn(C)c4ccc(F)cc34)n2)c2cnccc21 yielded a GI50 of 1.96 µM and a TGI of 4.13 µM. COc1cc(OC)c2sc(-c3ccc(-n4cncc4-c4cc(OC)c(OC)c(OC)c4)cc3)nc2c1 showed a GI50 of 3.95 µM and a TGI greater than 100 µM. CN(C)CCNc1nc2ccccc2c2c(=O)c3cc(F)ccc3sc12 showed a GI50 of 2.22 µM and a TGI of 5 µM. O=C(CBr)c1ccc2cc(Br)c3ccccc3c2c1 showed a TGI greater than 100 µM.

The compounds below were run on OVCAR-3 ovarian (assay: NCI-60 cell line screen, 48 h).
Cn1cc(-c2csc(-c3cn(C)c4ccc(F)cc34)n2)c2cnccc21 was tested, and the GI50 was 1.95 µM and the TGI was 3.48 µM. In the case of COc1cc(OC)c2sc(-c3ccc(-n4cncc4-c4cc(OC)c(OC)c(OC)c4)cc3)nc2c1, the GI50 is reported as 3.26 µM and the TGI is reported as greater than 100 µM. CN(C)CCNc1nc2ccccc2c2c(=O)c3cc(F)ccc3sc12 was tested, and the GI50 was 1.84 µM and the TGI was 3.33 µM. Work on O=C(CBr)c1ccc2cc(Br)c3ccccc3c2c1 yielded a TGI of 46.9 µM.

What follows are compounds tested on SK-OV-3 ovarian (assay: NCI-60 cell line screen, 48 h).
With Cn1cc(-c2csc(-c3cn(C)c4ccc(F)cc34)n2)c2cnccc21 the GI50 was 2.03 µM and the TGI was 3.75 µM. Compound COc1cc(OC)c2sc(-c3ccc(-n4cncc4-c4cc(OC)c(OC)c(OC)c4)cc3)nc2c1 has a GI50 greater than 100 µM and a TGI greater than 100 µM. Cc1cn2c(/C=N/N=C(N)N)c(-c3ccc(Cl)c([N+](=O)[O-])c3)nc2s1 gave a TGI of 3.15 µM. Work on COc1ccc(-c2cc(-c3ccc(Nc4ccnc5cc(Cl)ccc45)cc3)nc(N3CCOCC3)n2)cc1 yielded a GI50 of 34.8 µM and a TGI greater than 100 µM.

The compounds below were run on M14 melanoma (assay: NCI-60 cell line screen, 48 h).
In the case of Cn1cc(-c2csc(-c3cn(C)c4ccc(F)cc34)n2)c2cnccc21, the GI50 is reported as 1.72 µM and the TGI is reported as 3.21 µM. COc1cc(OC)c2sc(-c3ccc(-n4cncc4-c4cc(OC)c(OC)c(OC)c4)cc3)nc2c1 gave a GI50 of 7.91 µM and a TGI greater than 100 µM. For CN(C)CCNc1nc2ccccc2c2c(=O)c3cc(F)ccc3sc12, the GI50 was 1.9 µM and the TGI was 3.55 µM. In the case of O=C(CBr)c1ccc2cc(Br)c3ccccc3c2c1, the TGI is reported as 84 µM. For COc1ccc(-c2cc(-c3ccc(Nc4ccnc5cc(Cl)ccc45)cc3)nc(N3CCOCC3)n2)cc1, the GI50 was 2.81 µM and the TGI was greater than 100 µM.

These compounds were tested on RPMI-8226 leukemia (assay: NCI-60 cell line screen, 48 h).
With Cn1cc(-c2csc(-c3cn(C)c4ccc(F)cc34)n2)c2cnccc21 the GI50 was 1.98 µM and the TGI was 4.14 µM. COc1cc(OC)c2sc(-c3ccc(-n4cncc4-c4cc(OC)c(OC)c(OC)c4)cc3)nc2c1 showed a GI50 of 5.39 µM and a TGI greater than 100 µM. CN(C)CCNc1nc2ccccc2c2c(=O)c3cc(F)ccc3sc12 was tested, and the GI50 was 2.3 µM and the TGI was 5.18 µM. O=C(CBr)c1ccc2cc(Br)c3ccccc3c2c1 gave a TGI greater than 100 µM. COc1ccc(-c2cc(-c3ccc(Nc4ccnc5cc(Cl)ccc45)cc3)nc(N3CCOCC3)n2)cc1 gave a GI50 of 3.79 µM and a TGI greater than 100 µM.

What follows are compounds tested on MOLT-4 leukemia (assay: NCI-60 cell line screen, 48 h).
In the case of COc1cc(OC)c2sc(-c3ccc(-n4cncc4-c4cc(OC)c(OC)c(OC)c4)cc3)nc2c1, the GI50 is reported as 4.24 µM and the TGI is reported as greater than 100 µM. Compound O=C(CBr)c1ccc2cc(Br)c3ccccc3c2c1 has a TGI of 37 µM.
